# From ChEMBL document CHEMBL1201862, “PubChem BioAssay data set” (2004)
#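 In this assay, cells in 96-well plates receive the compound at five concentrations for 48 hours. Endpoints are linearly interpolated between the surrounding concentrations. Abbreviation: GI50, concentration required for 50% inhibition of growth.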 Calls of active or inactive are those of the source. Cut-off read from the data, not from the text of the source: active = GI50 up to about 1.1 µM and inactive = higher.
# Tests used:
# Assay in all cases: DTP human tumour cell line panel, 48 h
# COLO 205 = tested on: COLO 205
# HCT-15 = tested on: HCT-15
# UO-31 = tested on: UO-31
# SK-MEL-28 = tested on: SK-MEL-28
# SF-268 = tested on: SF-268
# SN12C = tested on: SN12C
# A549 = tested on: A549
# ACHN = tested on: ACHN
# OVCAR-3 = tested on: OVCAR-3
# IGROV-1 = tested on: IGROV-1
# HL-60 = tested on: HL-60
# SK-OV-3 = tested on: SK-OV-3
# OVCAR-8 = tested on: OVCAR-8
# EKVX = tested on: EKVX
# HCC 2998 = tested on: HCC 2998
# MOLT-4 = tested on: MOLT-4
SMILES,GI50 (COLO 205),GI50 (HCT-15) [µM],GI50 (UO-31),GI50 (SK-MEL-28),GI50 (SF-268),GI50 (SN12C),GI50 (A549),GI50 (ACHN),GI50 (OVCAR-3),GI50 (IGROV-1),GI50 (HL-60),GI50 (SK-OV-3),GI50 (OVCAR-8),GI50 (EKVX),GI50 (HCC 2998),GI50 (MOLT-4)
COc1cc(OC)c(/C=C/c2cnc3ccccc3n2)c(OC)c1,> 10 µM (inactive),> 10,0.0561 µM (active),> 10 µM (inactive),> 10 µM (inactive),> 10 µM (inactive),> 10 µM (inactive),> 10 µM (inactive),> 10 µM (inactive),> 10 µM (inactive),> 10 µM (inactive),> 10 µM (inactive),> 10 µM (inactive),> 10 µM (inactive),> 10 µM (inactive),–
CCOc1cccc(/C=N/N=C2\C(=O)Nc3c(Cl)cc(Cl)cc32)c1O,> 100 µM (inactive),54.6,34 µM (inactive),71.8 µM (inactive),–,73.6 µM (inactive),> 100 µM (inactive),> 100 µM (inactive),36.9 µM (inactive),74.8 µM (inactive),33.4 µM (inactive),> 100 µM (inactive),60.5 µM (inactive),5.97 µM (inactive),85.7 µM (inactive),28.4 µM (inactive)
O=C(CN1CCOCC1)CC(O)(C(F)(F)F)C(F)(F)F,> 100 µM (inactive),55.5,51.3 µM (inactive),> 100 µM (inactive),–,–,> 100 µM (inactive),92.5 µM (inactive),35.9 µM (inactive),71.8 µM (inactive),61.7 µM (inactive),> 100 µM (inactive),> 100 µM (inactive),> 100 µM (inactive),67.3 µM (inactive),37.2 µM (inactive)
CC(CSC(=N)N)C(N)=O (centres undefined),> 100 µM (inactive),> 100,> 100 µM (inactive),> 100 µM (inactive),> 100 µM (inactive),> 100 µM (inactive),> 100 µM (inactive),> 100 µM (inactive),> 100 µM (inactive),> 100 µM (inactive),> 100 µM (inactive),> 100 µM (inactive),> 100 µM (inactive),> 100 µM (inactive),> 100 µM (inactive),–
CC(C)(C)C1=C(Br)C(F)(C(C)(C)C)OP1(=O)c1ccccc1 (centres undefined),16 µM (inactive),19.5,45.7 µM (inactive),19.2 µM (inactive),19.6 µM (inactive),16 µM (inactive),19.3 µM (inactive),16.5 µM (inactive),15.5 µM (inactive),16 µM (inactive),2.79 µM (inactive),18 µM (inactive),21.6 µM (inactive),19.3 µM (inactive),13.8 µM (inactive),–
O=c1c2sc(=S)n(-c3ccc(F)cc3)c2ncn1/N=C/c1ccc(F)cc1F,> 100 µM (inactive),88.9,24.9 µM (inactive),29.8 µM (inactive),18.7 µM (inactive),31.3 µM (inactive),46 µM (inactive),27.5 µM (inactive),30.1 µM (inactive),24.6 µM (inactive),22.8 µM (inactive),25.4 µM (inactive),20.1 µM (inactive),16.6 µM (inactive),31 µM (inactive),–
CS(=O)(=O)O[C@H]1[C@H](O)c2ccccc2[C@@H]1N=[N+]=[N-],> 100 µM (inactive),> 100,> 100 µM (inactive),> 100 µM (inactive),–,> 100 µM (inactive),> 100 µM (inactive),> 100 µM (inactive),> 100 µM (inactive),> 100 µM (inactive),> 100 µM (inactive),> 100 µM (inactive),> 100 µM (inactive),> 100 µM (inactive),> 100 µM (inactive),> 100 µM (inactive)
